Laboratory results: patent US20100305053A1, “USE OF […] OF A DERIVATIVE THEREOF FOR THE PREVENTION AND/OR TREATMENT OF SLACKENED SKIN” (L'OREAL, priority 2007, published 2010)

How the values were obtained:
collagen IV = test: Collagen IV immunolabeling (immunofluorescence) of skin sections after 24 weeks of dietary hesperidin; assay type: in vivo; settings: for Number of sections (out of 12) with medium and strong labeling of the DEJ / % of sections with medium and strong labeling of the DEJ: collagen IV; for Number of sections (out of 12) with medium and strong labeling of the DEJ: control group E: 6; for % of sections with medium and strong labeling of the DEJ: control group E: 50
Experimental: (§1) The study was carried out on elderly, healthy individuals subjected, for 24 weeks, to a diet optionally comprising hesperidin.
(§2) The first group of individuals (group E) is a control group subjected to a standard diet free of hesperidin.
(§3) The second group of individuals (group F) is a group subjected to a diet comprising 0.1% by weight of hesperidin relative to the standard diet, which corresponds to 50 mg of hesperidin per kg of body weight of the individual and per day.
(§4) The third group of individuals (group G) is a group subjected to a standard diet comprising 0.5% by weight of hesperidin relative to the standard diet, which corresponds to 250 mg of hesperidin per kg of body weight of the individual and per day.
(§5) Skin samples were taken and analyzed in order to study, by immunofluorescence, the expression of the collagen IV and collagen VII skin markers characteristic of the dermoepidermal junction.
The immunolabeling of collagen IV is carried out by immunohistochemistry with an “anticollagen type IV polyclonal” primary antibody [Rockland (sold by Tebu-Bio), dilution 1/50] and an “anti-rabbit FITC” secondary antibody [Santa Cruz, dilution 1/100].
The labeling was carried out on frozen sections 5 μm thick derived from skin samples.
The slides were recovered in PBS for five minutes, incubated with the primary antibody for one hour at ambient temperature in the dark, rinsed in PBS twice for five minutes, then incubated with the secondary antibody for one hour at ambient temperature in the dark, and then again rinsed in PBS twice for five minutes.
The slides were then mounted with Vectashield (Vector) containing DAPI ([…]), and then covered with a coverslip.

collagen VII = test: Collagen VII immunolabeling (immunofluorescence) of skin sections after 24 weeks of dietary hesperidin; assay type: in vivo; settings: for Number of sections (out of 12) with labeling of the DEJ and labeling in the papillary dermis / % of sections with labeling of the DEJ and labeling in the papillary dermis: collagen VII; for Number of sections (out of 12) with labeling of the DEJ and labeling in the papillary dermis: control group E: 3; for % of sections with labeling of the DEJ and labeling in the papillary dermis: control group E: 25
Experimental: as §1, §2, §3, §4, §5
The collagen VII immunolabeling is carried out as indicated previously, but using “anticollagen type VII polyclonal” [EUROMEDEX (sold by Chemicon), dilution 1/500] as primary antibody and “anti-mouse Ig FITC” [Dake, dilution 1/100] as secondary antibody.

[1] = group F, diet with 0.1% by weight hesperidin (50 mg/kg/day), 24 weeks
[2] = group G, diet with 0.5% by weight hesperidin (250 mg/kg/day), 24 weeks

## COc1ccc([C@@H]2CC(=O)c3c(O)cc(O[C@@H]4O[C@H](CO[C@@H]5O[C@@H](C)[C@H](O)[C@@H](O)[C@H]5O)[C@@H](O)[C@H](O)[C@H]4O)cc3O2)cc1O [Hesperidin, (S)-7-[[6-O-(6-deoxy-α-L-mannopyranosyl)-β-D-glucopyranosyl]oxy]-2,3-dihydro-5-hydroxy-2-(3-hydroxy-4-methoxyphenyl)-4H-1-benzopyran-4-one]
Collagen IV; [1]
  Number of sections (out of 12) with medium and strong labeling of the DEJ: 7
  % of sections with medium and strong labeling of the DEJ: 58%
Collagen IV; [2]
  Number of sections (out of 12) with medium and strong labeling of the DEJ: 12
  % of sections with medium and strong labeling of the DEJ: 100%
Collagen IV; oral, diet, 24 weeks
  Effect on collagen network in the dermal tissue and collagen IV expression (conclusion): increase in the expression of the collagen IV
Collagen IV; the two treated groups (F and G), FIG. 1
  Expression of collagen IV in the basal lamina compared with the control: greater expression of collagen IV
Collagen VII; [1]
  Number of sections (out of 12) with labeling of the DEJ and labeling in the papillary dermis: 6
  % of sections with labeling of the DEJ and labeling in the papillary dermis: 50%
Collagen VII; [2]
  Number of sections (out of 12) with labeling of the DEJ and labeling in the papillary dermis: 11
  % of sections with labeling of the DEJ and labeling in the papillary dermis: 92%
Collagen VII; more particularly group G (0.5% hesperidin diet), FIG. 2
  Collagen VII fluorescence intensity at the DEJ and in the papillary dermis: increase in fluorescence intensity
Collagen VII; oral, diet, 24 weeks
  Effect on collagen network in the dermal tissue and collagen VII expression (conclusion): increase in the expression of collagen VII
